Laboratory results from article PMC6888270 (International Journal of Molecular Sciences, 2019).
Square brackets hold non-standard residues; d marks the D form. Peptide text beside a SMILES is read from it. Phe(4-Cl) = N[C@@H](Cc1ccc(Cl)cc1)C(=O)O; d2Nal = N[C@H](Cc1ccc2ccccc2c1)C(=O)O; d(hCit) = NC(=O)NCCCC[C@@H](N)C(=O)O; Lys(iPr) = CC(C)NCCCC[C@H](N)C(=O)O; d3Pal = N[C@H](Cc1cccnc1)C(=O)O

Experiments:
[1] = molecular target: Hemagglutinin-tagged GnRHR (GnRHR-HA) (UniProt P30968)
[2] = molecular target: T1, murine GnRHR (mouse (endogenous in LβT2)) (UniProt Q01776)
T1 sequence: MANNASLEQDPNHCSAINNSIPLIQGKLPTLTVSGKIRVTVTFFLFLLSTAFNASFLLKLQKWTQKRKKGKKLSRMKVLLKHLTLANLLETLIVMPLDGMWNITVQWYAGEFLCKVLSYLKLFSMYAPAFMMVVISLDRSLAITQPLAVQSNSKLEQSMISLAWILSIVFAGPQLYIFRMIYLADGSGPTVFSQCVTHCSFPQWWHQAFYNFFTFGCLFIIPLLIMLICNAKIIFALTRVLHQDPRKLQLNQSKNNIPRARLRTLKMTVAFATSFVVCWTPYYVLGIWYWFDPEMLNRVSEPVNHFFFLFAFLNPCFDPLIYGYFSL

GnRH receptor (GnRHR) [3] = molecular target: T2, GnRH receptor (GnRHR) (Homo sapiens, UniProt P30968); assay: BRET measurement of GnRH-induced intracellular Ca2+ increase in HEK293/GnRHR cells; assay type: cell-based; parameters: HA (hemagglutinin); expressed in transfected cells; host or cells: HEK293 (transient co-transfection with BRET biosensor); conditions: means ± SEM, n = 6
T2 sequence (P30968 1-328): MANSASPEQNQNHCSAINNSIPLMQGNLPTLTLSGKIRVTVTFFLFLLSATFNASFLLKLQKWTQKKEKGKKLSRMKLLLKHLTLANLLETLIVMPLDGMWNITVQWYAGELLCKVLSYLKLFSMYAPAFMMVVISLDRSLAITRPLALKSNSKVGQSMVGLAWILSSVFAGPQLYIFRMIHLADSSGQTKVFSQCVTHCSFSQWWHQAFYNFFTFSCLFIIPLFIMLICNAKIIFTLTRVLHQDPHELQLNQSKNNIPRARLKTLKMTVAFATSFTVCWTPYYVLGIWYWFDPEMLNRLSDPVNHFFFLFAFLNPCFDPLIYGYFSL
Experimental: (§1) Different transfection protocols were followed, depending on the endpoint to be measured. For BRET experiments, 3 × 10^4 cells were transiently transfected using vectors expressing the cAMP-CAMYEL or the aequorin-Ca^2+ BRET biosensor-encoding cDNA [59], as appropriate, together with the GnRHR-HA-encoding vector. Transfections were performed in a 96-well plate using the Metafectene PRO reagent (Biontex, München, Germany), as previously described. 100 ng of the receptor-encoding vector + 100 ng of the BRET biosensor-encoding vector were used for co-transfecting HEK293 cells, while SH-SY5Y cells were co-transfected using 200 ng of the receptor-encoding vector + 100 ng of the BRET biosensor-encoding vector. 200 ng of the aequorin-Ca^2+ BRET biosensor-encoding cDNA were used for transfecting LβT2 cells. Each sample was prepared in duplicate, cultured for 48 h and serum-starved over-night before experiments.
(§2) To evaluate Ca^2+ increase, cells were incubated in Hank’s Balanced Salt Solution (HBSS) with Ca^2+ and Mg^2+, 1 mM Hepes and 5 µM Coelenterazine H (NanoLight Technologies, a division of Prolume, Ltd., Pinetop, AZ, USA), for 45 minutes, together with Cetrorelix, Ganirelix, Teverelix or vehicle, as appropriate. […] The EC50 was extrapolated from the curve obtained from each cell line. Cells treated by 5 µM of the sarco/endoplasmic reticulum Ca^2+ ATPase enzyme inhibitor, thapsigargin (Tocris Bioscience), served as positive control. Treatment by the vehicle (HBSS) was the negative control and used as a normalizer.
(§3) BRET experiments were performed using a CLARIOstar plate reader equipped by a monocromator (BMG Labtech, Ortenberg, Germany), as previously described.
(§4) Data were plotted on graphs as means ± standard error of means (SEM). The kinetics of intracellular Ca^2+ increase was represented by the BRET biosensor emission after background subtraction (vehicle). […] Data distributions were analyzed by D’Agostino and Pearson normality tests and inhibition of intracellular Ca^2+ increase by different concentrations of antagonist were compared using two-way analysis of variance (ANOVA), followed by Bonferroni post-test or Kruskal-Wallis and proper post-test. cAMP accumulation was represented as acceptor:donor emission ratio (induced BRET changes) after basal subtraction (untreated cells). Dose-response curves were obtained by data interpolation using non-linear regressions and normalized as percentage of the maximal response. EC50s, as well as half-maximal inhibitory concentrations (IC50), were compared by t-test or Mann–Whitney U test, while results obtained by Western blotting and qRT-PCR data were compared by one-way ANOVA followed by Bonferroni post-test. Statistical differences were considered as significant for p < 0.05. These analyses were performed using the GraphPad Prism software (GraphPad Software Inc., San Diego, CA, USA).

β-catenin activation = assay: Immunofluorescence of active β-catenin in HEK293/GnRHR cells; assay type: cell-based, human; conditions: 1 µM GnRH + 1 µM antagonist, 1 h
Experimental: In order to evaluate the activation of phospho-proteins and β-catenin by Western blotting and immunofluorescence, 1 × 10^5 HEK293 cells were transiently transfected in a 24-well plate. To this purpose, 500 ng of GnRHR-HA-encoding vector diluted in 2 µL/well Lipofectamine® 2000 Transfection Reagent (Invitrogen) were used, according to the manufacturer’s instructions. Transfected HEK293 cells (HEK293/GnRHR) were cultured for 48 h and maintained over-night in serum-free medium before experiments.
3 × 10^4 HEK293/GnRHR and mock-transfected HEK293 cells (negative control) were plated on gelatine-treated slides. […] As a positive control, cells were treated for 16 h with 100 nM of the selective glycogen synthase kinase 3 (GSK3) inhibitor, CHIR99021 (Sigma-Aldrich), which stabilizes free cytosolic β-catenin [68]. After stimulations, cells were washed in PBS with Ca^2+/Mg^2+ and fixed for 20 min in paraformaldehyde 4%/PBS. Cell monolayers were washed by PBS and permeabilized using 0.1% Triton X-100. Samples were incubated in 4% bovine serum albumin (BSA)/PBS, for 1 h at room temperature (RT), before incubation with a mouse primary antibody targeting β-catenin (#05-665, 1:300 dilution in 4% BSA/PBS; Merck KGaA) overnight at 4 °C. Following washing, cells were then incubated with Cy3-conjugated anti-mouse IgG secondary antibody (#C2181, 1:200 dilution in 4% BSA/PBS; Sigma-Aldrich) for 1 h at RT. Cell monolayers were then stained for 10 min with 4′,6-diamidino-2-phenylindole (DAPI) (Sigma-Aldrich) and washed in PBS before slide treatment by polyvinyl alcohol mounting medium with 1,4-diazabicyclo[2.2.2]octane (DABCO®) (Sigma-Aldrich). Fluorescent signals were detected using the Eclipse Ni-E microscope (Nikon Instruments BV, Amsterdam, The Netherlands).

Lhb gene expression = Lhb gene expression by qRT-PCR in LβT2 cells; assay type: cell-based, mouse; conditions: 1 µM GnRH + 1 µM antagonist, 24 h, n = 4
Experimental: LβT2 cells were seeded in 24-well plates (2 × 10^5 cells/well) and cultured for 24 h in DMEM supplemented with 10% Charcoal Stripped FBS, 4.5 g/L glucose, 100 IU/mL penicillin, 0.1 mg/mL streptomycin, and 1 mM glutamine (all from Sigma-Aldrich) before treatments. […] Samples were lysed for RNA extraction using TRIzolTM Reagent (Invitrogen) and equal amounts of total RNA were used for cDNA synthesis performed using the iScript reverse transcriptase (BioRad), as previously described. qRT-PCR was carried out in triplicates on the CFX96TM Real-Time PCR Detection System (BioRad) using the following primers pairs: [NT] for mouse Lhb; [NT] for mouse Gapdh. Primer sequences were drawn using the Mus musculus Lhb (NCBI Reference Sequence: NM_008497.2) and Gapdh (NM_008084.3) mRNAs as templates. Gene expression of Lhb was normalized to mouse Gapdh gene expression using the 2^-ΔΔCt method.

GnRH receptor (GnRHR) [4] = molecular target: T2, GnRH receptor (GnRHR); assay: BRET measurement of GnRH-induced intracellular Ca2+ increase in SH-SY5Y/GnRHR cells; assay type: cell-based; parameters: HA (hemagglutinin); expressed in transfected cells; conditions: means±SEM, n=6
Experimental: as §1, §2, §3, §4

For Cetrorelix acetate (peptide), which IC50 of inhibition of 3 × EC50 GnRH-induced cAMP accumulation (CAMYEL BRET), HEK293/GnRHR cells [1] is on record?
Its IC50 of inhibition of 3 × EC50 GnRH-induced cAMP accumulation (CAMYEL BRET), HEK293/GnRHR cells is 0.84 nM.

What about the IC50 of inhibition of 3 × EC50 GnRH-induced cAMP accumulation (CAMYEL BRET), SH-SY5Y/GnRHR cells [1] of the same molecule?
Its IC50 of inhibition of 3 × EC50 GnRH-induced cAMP accumulation (CAMYEL BRET), SH-SY5Y/GnRHR cells is 1.56 nM.

How did the EC50 of GnRH-induced intracellular Ca^2+ accumulation (BRET biosensor), LβT2 cells [2] turn out when “Gonadotropin releasing hormone (GnRH) (from UniProt P01148 24-33) (peptide)” was run?
Its EC50 of GnRH-induced intracellular Ca^2+ accumulation (BRET biosensor), LβT2 cells is 1.8 nM.

What does the source list for Teverelix (peptide)?
IC50 of inhibition of 3 × EC50 GnRH-induced cAMP accumulation (CAMYEL BRET), HEK293/GnRHR cells [1]: 0.49 nM; IC50 of inhibition of 3 × EC50 GnRH-induced cAMP accumulation (CAMYEL BRET), SH-SY5Y/GnRHR cells [1]: 62.8 nM

Ganirelix acetate (peptide) was tested. Which IC50 of inhibition of 3 × EC50 GnRH-induced cAMP accumulation (CAMYEL BRET), HEK293/GnRHR cells [1] did it give?
The IC50 of inhibition of 3 × EC50 GnRH-induced cAMP accumulation (CAMYEL BRET), HEK293/GnRHR cells was 0.61 nM.

And the IC50 of inhibition of 3 × EC50 GnRH-induced cAMP accumulation (CAMYEL BRET), SH-SY5Y/GnRHR cells [1]?
The IC50 of inhibition of 3 × EC50 GnRH-induced cAMP accumulation (CAMYEL BRET), SH-SY5Y/GnRHR cells was 16.6 nM.

Which results are given for `CC(=O)N[C@H](Cc1ccc2ccccc2c1)C(=O)N[C@@H](Cc1ccc(Cl)cc1)C(=O)N[C@H](Cc1cccnc1)C(=O)N[C@@H](CO)C(=O)N[C@H](Cc1ccc(O)cc1)C(=O)N[C@H](CCCCNC(N)=O)C(=O)N[C@@H](CC(C)C)C(=O)N[C@@H](CCCCNC(C)C)C(=O)N1CCC[C@H]1C(=O)N[C@H](C)C(N)=O` [Teverelix] (Ac-[d2Nal][Phe(4-Cl)][d3Pal]S[dY][d(hCit)]L[Lys(iPr)]P[dA]-NH2)?
AUC of the kinetics of intracellular Ca2+ response (GnRH receptor (GnRHR) [3]; 3 × EC50 GnRH + 1 pM antagonist): 85,301 ± 21,321; AUC of the kinetics of intracellular Ca2+ response (GnRH receptor (GnRHR) [3]; 3 × EC50 GnRH + 10 pM antagonist): 98,939 ± 27,373; AUC of the kinetics of intracellular Ca2+ response (GnRH receptor (GnRHR) [3]; 3 × EC50 GnRH + 100 pM antagonist): 58,864 ± 27,101; AUC of the kinetics of intracellular Ca2+ response (GnRH receptor (GnRHR) [3]; 3 × EC50 GnRH + 1 nM antagonist): 81,702 ± 18,920; AUC of the kinetics of intracellular Ca2+ response (GnRH receptor (GnRHR) [3]; 3 × EC50 GnRH + 10 nM antagonist): 74,321 ± 17,569; AUC of the kinetics of intracellular Ca2+ response (GnRH receptor (GnRHR) [3]; 3 × EC50 GnRH + 75 nM antagonist): 42,401 ± 8974; AUC of the kinetics of intracellular Ca2+ response (GnRH receptor (GnRHR) [3]; 3 × EC50 GnRH + 100 nM antagonist): 29,931 ± 8731; AUC of the kinetics of intracellular Ca2+ response (GnRH receptor (GnRHR) [3]; 3 × EC50 GnRH + 1 µM antagonist): 4107 ± 3804; effect on GnRH-induced active β-catenin staining (β-catenin activation): did not result in any decrease of signal; effect on GnRH-induced Lhb gene expression (Lhb gene expression): inhibited; AUC of the kinetics of intracellular Ca2+ response (GnRH receptor (GnRHR) [4]; 3xEC50 GnRH + 1 pM antagonist): 143555±29053; AUC of the kinetics of intracellular Ca2+ response (GnRH receptor (GnRHR) [4]; 3xEC50 GnRH + 10 pM antagonist): 128010±27347; AUC of the kinetics of intracellular Ca2+ response (GnRH receptor (GnRHR) [4]; 3xEC50 GnRH + 100 pM antagonist): 110248±22209; AUC of the kinetics of intracellular Ca2+ response (GnRH receptor (GnRHR) [4]; 3xEC50 GnRH + 1 nM antagonist): 96368±17786; AUC of the kinetics of intracellular Ca2+ response (GnRH receptor (GnRHR) [4]; 3xEC50 GnRH + 10 nM antagonist): 81812±12486; AUC of the kinetics of intracellular Ca2+ response (GnRH receptor (GnRHR) [4]; 3xEC50 GnRH + 20 nM antagonist): 38199±10646; AUC of the kinetics of intracellular Ca2+ response (GnRH receptor (GnRHR) [4]; 3xEC50 GnRH + 100 nM antagonist): 76018±13231; AUC of the kinetics of intracellular Ca2+ response (GnRH receptor (GnRHR) [4]; 3xEC50 GnRH + 1 uM antagonist): 5686±3292
